Assay results taken from US20100092459A1, “Protein Complex and Uses” (IMPERIAL INNOVATIONS LIMITED, priority 2006, published 2010).

How the values were obtained:
[1] = tested on: FGF-2-mediated ERK phosphorylation in H510 cells; experiment: FGF-2-induced ERK phosphorylation in H510 cells, Western blot for biphospho-ERK; format: cell-based; details: for inhibition of FGF-2-mediated ERK phosphorylation: dose range of inhibitor 1 h, then FGF-2 0.1 ng/ml 5 min
Method: (B) Representative blots from (A) were quantified by optical densitometry normalised for actin. (C) H69 cells transfected with empty (V) or a wt-PKCε-GFP expressing vector (a) were analysed for phospho-ERK, XIAP and Bcl-XL levels. (D) Baseline level cell death in V-H69 and ε-H69 cells growing in 10% FCS was determined by flow cytometry using Annexin V staining. (E) ε-H69 and V-H69 cells in SFM were treated with or without 0.1 μM etoposide (VP-16) and cell numbers determined 96 h later. Conditions were performed in quadruplicates and the average cell number±SEM represented as fold over untreated. (F) H510 cells in SFM were treated with or without 40 μM ε-TITAT, ΕTI-TITAT or TITAT for 4 h prior to stimulation for 5 min with or without FGF-2 (0.1 ng/ml). Cell lysates were Western-blotted for biphospho-ERK. […] (G) H510 cells transfected with PKCε or scrambled (sc) siRNA were stimulated with or without FGF-2. Lysates were analysed for PKCε levels and Erk phosphorylation. (A, C, F and G) Lamin B and actin immunodetection were used as loading controls.
(A) H510 cells were treated with or without a dose range of GF109203X (GF), Gö6976 (Go), Hispidin (His), BAPTA (BA) or Rottlerin (Rot) for 1 h prior to stimulation for 5 min in the presence or absence of either FGF-2 (0.1 ng/ml) or PDBu (400 nM). Cell lysates were analysed by SDS-PAGE/Western-blotting for biphospho-ERK. Lamin immunodetection was used as loading control. (B-top panel) Equal protein amounts from SCLC cell lines were compared for their PKC expression pattern. (B-bottom panel) SCLC cells in SFM were stimulated with and without FGF-2 for 5 min and cell lysates analysed by SDS-PAGE/WB for Erk phosphorylation. PKCε and PKCα levels (ODs from left panel) were compared to the ability to phosphorylate Erk in these SCLC cell lines. Results shown are representative of at least three independent experiments.
The PKCε translocation inhibitor ([…]) and PKCα translocation inhibitor ([…]) (Souroujon and Mochly-Rosen, 1998; Yedovitzky et al., 1997) were made cell-permeable by linkage to the HIV-derived TITAT sequence ([…]). H510 cells in RPMI were incubated for 4 h with 40 μM of either translocation inhibitor peptides or TITAT prior to further treatments. The activity of these inhibitors on ERK phosphorylation was assessed by Western Blotting.

[2] = tested on: S6K2; experiment: S6K2 immune complex kinase assay (S6-peptide substrate), ε-H69 cells; format: cell-based; details: ε-H69 cells (PKCε over-expressing), 40 μM peptide 4 h
Method: (§1) Cell lysates were subjected to immunoprecipitation with a PKCε antibody prior to Western blotting (WB) for the molecules indicated. (A-lower panel) Total cell lysate was Western-blotted as indicated. (B and E) […] was immunoprecipitated from V-H69 and ε-H69 (B) or […] cells (E) following 4 h treatment with or without ε[…] and TITAT. Immunoprecipitates were subjected to in-vitro kinase assays with S6-peptide as a substrate and the results shown are average cpm±SEM from triplicates of a representative experiment. (C) The phosphorylation of the endogenous V-H69 and -H69 cells in SFM were washed three times in RPMI 1640, and 2×10^6 cell aliquots were incubated in this medium for 30 min at 37° C. Cells were treated in the presence or absence of 40 μM ([…] or TITAT peptide for 4 h as indicated, prior to performing an immune complex kinase assay for S6K1 or […] as described (Pardo et al., 2001). In separate experiments, HEK293Tet cells expressing tetracycline-inducible kinase active cytoplasmic forms of S6K1 or […] were incubated with or without tetracycline prior to lysis and immune complex kinase assay.

[3] = tested on: S6K2; experiment: S6K2 immune complex kinase assay, FGF-2-stimulated H510 cells; format: cell-based; details: peptide 4 h
Method: as §1

[4] = target: S6K2 (human) (UniProt Q9UBS0)
[5] = tested on: S6 protein; experiment: Phosphorylation of endogenous S6 protein in ε-H69 cells (phospho-S6 antibody); format: cell-based; details: ε-H69 cells in SFM
Method: S6 protein from V-H69 and ε-H69 cells in SFM treated with or without εTI-TITAT was determined using a phospho-S6 antibody. (D and F) PKCε KO MEFs re-expressing (KO+ε) or not (KO) […] were (D) grown in 10% FCS and analysed for phospho-S6 levels or (F) stimulated with or without FGF-2 and FCS prior to S6K2 immunoprecipitation and Western blotted as indicated. (C and D) Lamin B and actin immunodetection were used as a loading control. (A-F) Results shown are representative of at least 3 independent experiments.

[6] = tested on: Bcl-XL and XIAP; experiment: Bcl-XL and XIAP expression in HEK293Tet cells, Western blot; format: cell-based
Method: (§2) HEK 293-Tet clones transfected with an inducible vector for kinase active S6K1 (1KA), S6K2 (2KA) or empty vector were treated with tetracycline for 6 h prior to (A) Western-blotting (WB) as indicated or (B) S6K1 or 2 kinase assay using an S6 peptide as substrate. (C) V-, 1KA- and 2KA-293 cells were incubated in the absence of tetracycline with (white bars) or without (hatched bars) serum for 18 h or with tetracycline in the absence of serum (black bars) and the proportion of apoptotic cells determined using annexin V staining. (D) Cell lysates from 2KA and 1KA-293 cells treated with or without tetracycline, FGF-2 and PD098059 were analysed for Bcl-XL expression and S6 phosphorylation. (E) HEK 293 cells incubated with or without FGF-2 (4h) prior to serum deprivation (18 h) were analysed by annexin V staining. (A, D, F) Actin and lamin B immunodetections were used as a loading control. (B, C, E) Results represent the average of triplicates±SEM. (A-E) Results are representative of at least three independent experiments.
(A and B) HEK293 expressing tetracycline-inducible kinase-active S6K1 (1KA) or 2 (2KA) were treated with or without tetracycline for 6 h (B) or the time indicated (A). (A) Cells were grown in the absence of FCS and a cell death time-course performed. Cell death was assessed microscopically by determining Trypan blue positivity. Results shown are averages±SEM of triplicates. (C) HEK293 cells were treated for 1 h with or without 25 μM PD098059 prior to stimulation with FGF-2 for 4 h. (B and C) Cell lysates were analysed by SDS-PAGE/WB for the levels of Bcl-XL and XIAP. Actin was used as a loading control. Results shown are representative of at least three independent experiments.

[7] = tested on: HEK293Tet cells; experiment: Survival of HEK293Tet cells after serum deprivation (annexin V); format: cell-based; details: FGF-2 4 h before serum deprivation 18 h
Method: as §2
SCLC cells (5×10^4 cells/ml SFM) were pre-treated with or without 0.1 ng/ml FGF-2 for 4 h prior to treatment with 0.1 μM etoposide and incubated at 37° C. for 96 h. […] The proportion of cell death was either determined by trypan blue exclusion or by Annexin V staining and flow cytometry as previously described (Pardo et al., 2002).

[8] = 40 μM peptide 4 h, FGF-2 0.1 ng/ml 5 min

In the case of TITAT (GRKKRRQRRRPPQ), the “inhibition of ERK phosphorylation in response to FGF-2 (in words)” value [1, 8] is reported as “neither αTI-TITAT nor TITAT inhibited”, the “effect on basal S6K2 activity” value [2] is reported as “no effect” and the “inhibition of FGF-2-induced S6K2 activation” value [3] is reported as “but not by αTI-TITAT or TITAT”.

CC(=O)c1c(O)c(C)c(O)c(Cc2c(O)c3c(c(C(=O)/C=C/c4ccccc4)c2O)OC(C)(C)C=C3)c1O [Rottlerin] was tested, and the “inhibition of FGF-2-mediated ERK phosphorylation” value [1] was “inhibited”.

In the case of O=C(O)CN(CC(=O)O)c1ccccc1OCCOc1ccccc1N(CC(=O)O)CC(=O)O [BAPTA], the “inhibition of FGF-2-mediated ERK phosphorylation” value [1] is reported as “Only GF109203X and Rottlerin inhibited”.

wt-PKCε-GFP (enzyme) showed a basal S6K2 activity (immune complex kinase assay with S6-peptide) [4] of 2 fold.

αTI-TITAT (SLNPEWNETGRKKRRQRRRPPQ) was tested, and the “inhibition of ERK phosphorylation in response to FGF-2 (in words)” value [1, 8] was “neither αTI-TITAT nor TITAT inhibited”, the “effect on basal S6K2 activity” value [2] was “no effect” and the “inhibition of FGF-2-induced S6K2 activation” value [3] was “but not by αTI-TITAT or TITAT”.

With CN(C)CCCn1cc(C2=C(c3c[nH]c4ccccc34)C(=O)NC2=O)c2ccccc21 [GF109203X] the “inhibition of FGF-2-mediated ERK phosphorylation” value [1] was “inhibited”.

In the case of εTI-TITAT (EAVSLKPTGRKKRRQRRRPPQ), the “inhibition of ERK phosphorylation in response to FGF-2” value [1, 8] is reported as 60%, the “effect on basal S6K2 activity” value [2] is reported as “lowered S6K2 activity in ε-H69 cells to a level comparable to that found in V-H69 cells” and the “inhibition of FGF-2-induced S6K2 activation” value [3] is reported as “inhibited”. For the same compound, the “effect on increased S6 phosphorylation” value [5] was “prevented”.

In the case of “FGF-2: fibroblast growth factor-2, purchased from Calbiochem”, the “Bcl-XL and XIAP expression” value ([6]; HEK293Tet cells stimulated with FGF-2) is reported as “increased” and the survival [7] is reported as “increased survival”.

In the case of O=c1cc(O)cc(/C=C/c2ccc(O)c(O)c2)o1 [Hispidin], the “inhibition of FGF-2-mediated ERK phosphorylation” value [1] is reported as “Only GF109203X and Rottlerin inhibited”.

For COc1cccc(-c2cc(=O)c3ccccc3o2)c1N [PD098059], the “block of FGF-2-induced Bcl-XL and XIAP expression” value ([6]; HEK293 cells, 25 μM PD098059 1 h before FGF-2 4 h) was “could be blocked” and the “suppression of increased Bcl-XL and XIAP expression” value ([6]; KA-S6K2 HEK293Tet cells, tetracycline induced) was “could not be suppressed”.

Cn1c2ccccc2c2c3c(c4c5ccccc5n(CCC#N)c4c21)CNC3=O [Gö6976] was tested, and the “inhibition of FGF-2-mediated ERK phosphorylation” value [1] was “Only GF109203X and Rottlerin inhibited”.
